Results reported in US11896573B2, “Pharmaceutical compositions and pharmacokinetics of a gamma-hydroxybutyric acid derivative” (priority 2020, dated 2024).

Assay: Multiple ascending dose study, plasma pharmacokinetics of Compound (1) and GHB
Format: in vivo, human
Procedure: The plasma concentrations of Compound (1) and GHB in plasma in healthy human subjects were measured using liquid chromatography tandem mass-spectroscopy and evaluated using PHOENIX™ WINNONLIN® version 8.1 (Pharsight Corporation, USA) and MICROSOFT® EXCEL® (Microsoft Corporation, USA).
All randomized subjects who received Compound (1), with available pharmacokinetic (PK) data and without relevant deviations interfering with the PK evaluations, were included. Subjects who received only placebo were excluded from the PK population. In addition, the PK population was used for the summaries and analyses of all PK data.
A multiple ascending dose study was undertaken to evaluate the pharmacokinetics of multiple doses of Compound (1) in 3 cohorts of healthy subjects (with 8 subjects/cohort). Within each cohort, the subjects were randomized to receive Compound (1) or placebo at a ratio of 6:2 (active: placebo) for 7 days (or up to 9 days if the cohort included a titration period).
After fasting for at least 3 hours following a standard meal, subjects were randomized on Day 1 and the first dose of study drug (either target dose or titration dose) was administered. The first cohort of subjects (Cohort 8) received the second dose administration at approximately four hours after receiving the first dose. The subsequent […] cohorts (Cohorts 9 and 10) received only one dose per day.
For the first cohort (Cohort 8), the dose used was 6.0 g divided into two equal doses four hours apart for 7 days starting from Day 4 “Dose Day 1” to Day 10 “Dose Day 7”. Subsequent Cohorts 9, 10 received a single daily dose of 4.5 g and 6.0 g during the titration period (Day 1 for Cohort 9, Day 1 and Day 2 for Cohort 10, and after a titration period for 7 days starting from Day 4 “Dose Day 1” to Day 10 “Dose Day 7”. Cohort 11 was not conducted due to API availability.

[1] = Cohort 8 (6.0 g/day divided into equal 2 doses), Dosing Day 4
[2] = Cohort 8 (6.0 g/day divided into equal 2 doses), Dosing Day 10
[3] = Cohort 9 (4.5 g/day in a single dose), Dosing Day 4
[4] = Cohort 9 (4.5 g/day in a single dose), Dosing Day 10
[5] = Cohort 10 (6.0 g/day in a single dose), Dosing Day 4

CC(C)[C@H](N)C(=O)OCCCC(=O)O [Compound (1), 4-((L-valyl)oxy)butanoic acid]
Compound (1) CL/F, Max [1]: 597 L/h
Compound (1) CL/F, Mean [1]: 431 L/h
Compound (1) CL/F, Median [1]: 405 L/h
Compound (1) CL/F, Min [1]: 315 L/h
Compound (1) plasma AUC0-inf, Max [1]: 19100 ng·h/mL
Compound (1) plasma AUC0-inf, Min [1]: 10100 ng·h/mL
Compound (1) plasma AUC0-tlast, Max [1]: 19000 ng·h/mL
Compound (1) plasma AUC0-tlast, Min [1]: 10000 ng·h/mL
Compound (1) plasma Cmax, Max [1]: 16700 ng/mL
Compound (1) plasma Cmax, Min [1]: 9600 ng/mL
Compound (1) plasma T1/2, Max [1]: 112 min
Compound (1) plasma T1/2, Min [1]: 13.2 min
Compound (1) plasma Tmax, Max [1]: 270 min
Compound (1) CL/F, Max [2]: 569 L/h
Compound (1) CL/F, Mean [2]: 430 L/h
Compound (1) CL/F, Median [2]: 430 L/h
Compound (1) CL/F, Min [2]: 280 L/h
Compound (1) plasma AUC0-inf, Max [2]: 21500 ng·h/mL
Compound (1) plasma AUC0-inf, Min [2]: 10700 ng·h/mL
Compound (1) plasma AUC0-tlast, Max [2]: 21400 ng·h/mL
Compound (1) plasma AUC0-tlast, Min [2]: 10500 ng·h/mL
Compound (1) plasma Cmax, Max [2]: 17000 ng/mL
Compound (1) plasma Cmax, Min [2]: 8700 ng/mL
Compound (1) plasma T1/2, Max [2]: 31.2 min
Compound (1) plasma T1/2, Min [2]: 14.4 min
Compound (1) plasma Tmax, Max [2]: 285 min
Compound (1) CL/F, Max [3]: 406 L/h
Compound (1) CL/F, Mean [3]: 378 L/h
Compound (1) CL/F, Median [3]: 382 L/h
Compound (1) CL/F, Min [3]: 338 L/h
Compound (1) plasma AUC0-inf, Max [3]: 13300 ng·h/mL
Compound (1) plasma AUC0-inf, Min [3]: 11100 ng·h/mL
Compound (1) plasma AUC0-tlast, Max [3]: 13200 ng·h/mL
Compound (1) plasma AUC0-tlast, Min [3]: 8300 ng·h/mL
Compound (1) plasma Cmax, Max [3]: 17800 ng/mL
Compound (1) plasma Cmax, Min [3]: 10500 ng/mL
Compound (1) plasma T1/2, Max [3]: 40.8 min
Compound (1) plasma T1/2, Min [3]: 16.8 min
Compound (1) CL/F, Max [4]: 488 L/h
Compound (1) CL/F, Mean [4]: 423 L/h
Compound (1) CL/F, Median [4]: 443 L/h
Compound (1) CL/F, Min [4]: 323 L/h
Compound (1) plasma AUC0-inf, Max [4]: 13900 ng·h/mL
Compound (1) plasma AUC0-inf, Min [4]: 9200 ng·h/mL
Compound (1) plasma AUC0-tlast, Max [4]: 13800 ng·h/mL
Compound (1) plasma AUC0-tlast, Min [4]: 9100 ng·h/mL
Compound (1) plasma Cmax, Max [4]: 17800 ng/mL
Compound (1) plasma Cmax, Min [4]: 9300 ng/mL
Compound (1) plasma T1/2, Max [4]: 50.4 min
Compound (1) plasma T1/2, Min [4]: 22.2 min
Compound (1) CL/F, Max [5]: 684 L/h
Compound (1) CL/F, Mean [5]: 390 L/h
Compound (1) CL/F, Median [5]: 316 L/h
Compound (1) CL/F, Min [5]: 265 L/h
Compound (1) plasma AUC0-inf, Max [5]: 22700 ng·h/mL
Compound (1) plasma AUC0-inf, Min [5]: 8800 ng·h/mL
Compound (1) plasma AUC0-tlast, Max [5]: 22600 ng·h/mL
Compound (1) plasma AUC0-tlast, Min [5]: 8700 ng·h/mL
Compound (1) plasma Cmax, Max [5]: 28000 ng/mL
Compound (1) plasma Cmax, Min [5]: 10500 ng/mL
Compound (1) plasma T1/2, Max [5]: 30.6 min
Compound (1) plasma T1/2, Min [5]: 20.4 min
Compound (1) plasma Tmax, Min [5]: 19.8 min
Compound (1) CL/F, Max (Cohort 10 (6.0 g/day in a single dose), Dosing Day 10): 575 L/h
